Experimental data reported in US20250042875A1, “PESTICIDALLY ACTIVE PYRIDAZINONE COMPOUNDS” (SYNGENTA CROP PROTECTION AG, priority 2021, published 2025).

How the values were obtained:
Assay type in all cases: in vivo
Chilo suppressalis = test: Activity against Chilo suppressalis (striped rice stemborer), artificial diet, L2 larvae; conditions: 144 h, application rate 200 ppm, 6 days after infestation, read-out: control in at least one of the three categories (mortality, anti-feedant effect, or growth inhibition)
In short: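 Artificial diet was treated with aqueous test solutions made from 10′000 ppm DMSO stocks, dried, then infested with 6-8 L2 larvae per well. Mortality, anti-feeding effect and growth inhibition were scored versus untreated samples 6 days after infestation; control means any category exceeds untreated.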

Spodoptera littoralis = test: Activity against Spodoptera littoralis (Egyptian cotton leaf worm), cotton leaf discs, L1 larvae; conditions: foliar, 72 h, application rate 200 ppm, 3 days after infestation, read-out: control in at least one of the three categories (mortality, anti-feedant effect, or growth inhibition)
In short: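 Cotton leaf discs on agar sprayed with aqueous test solutions made from 10′000 ppm DMSO stocks, then infested with five L1 larvae once dry. Mortality, anti-feeding and growth inhibition scored versus untreated samples 3 days after infestation; control counted when any category exceeds untreated.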

Myzus persicae [1] = test: Activity against Myzus persicae (green peach aphid), intrinsic activity; conditions: 120 h, test rate 12 ppm, 5 days after infestation
In short: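 Compounds diluted from 10′000 ppm DMSO stocks were mixed with sucrose solution under a stretched Parafilm membrane. Aphid-infested pea seedlings were set on the membrane and the plate was inverted so the aphids fed through it. Mortality was scored 5 days after infestation.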

Plutella xylostella = test: Activity against Plutella xylostella (diamond back moth), artificial diet, eggs; conditions: 192 h, application rate 200 ppm, 8 days after infestation, read-out: control in at least one of the two categories (mortality or growth inhibition)
In short: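 Artificial diet was treated with aqueous dilutions of 10′000 ppm DMSO stocks, dried, then infested with Plutella eggs. Mortality and growth inhibition versus untreated samples were scored 8 days after infestation.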

Euschistus heros = test: Activity against Euschistus heros (neotropical brown stink bug), soybean leaves, N2 nymphs; conditions: 120 h, application rate 200 ppm, 5 days after infestation, read-out: effect in at least one of the two categories (mortality or growth inhibition)
Procedure: Example B3: Activity Against Euschistus heros (Neotropical Brown Stink Bug)
Soybean leaves on agar in 24-well microtiter plates were sprayed with aqueous test solutions prepared from 10′000 ppm DMSO stock solutions. After drying the leaves were infested with N2 nymphs. The samples were assessed for mortality and growth inhibition in comparison to untreated samples 5 days after infestation.

Diabrotica balteata = test: Activity against Diabrotica balteata (corn root worm), maize sprouts, L2 larvae; conditions: 96 h, application rate 200 ppm, 4 days after infestation, read-out: control in at least one of the two categories (mortality or growth inhibition)
Procedure: Example B2: Activity Against Diabrotica Balteata (Corn Root Worm)
Maize sprouts placed onto an agar layer in 24-well microtiter plates were treated with aqueous test solutions prepared from 10′000 ppm DMSO stock solutions by spraying. After drying, the plates were infested with L2 larvae (6 to 10 per well). The samples were assessed for mortality and growth inhibition in comparison to untreated samples 4 days after infestation.

Tetranychus urticae = test: Activity against Tetranychus urticae (two-spotted spider mite), feeding/contact activity; conditions: 192 h
Procedure: Example B10: Activity Against Tetranychus urticae (Two-Spotted Spider Mite). Feeding/Contact Activity
Bean leaf discs on agar in 24-well microtiter plates were sprayed with aqueous test solutions prepared from 10′000 ppm DMSO stock solutions. After drying the leaf discs were infested with a mite population of mixed ages. The samples were assessed for mortality on mixed population (mobile stages) 8 days after infestation.

[2] = tested on: Frankliniella occidentalis; test: Activity against Frankliniella occidentalis (western flower thrips), feeding/contact activity; conditions: 168 h, application rate 200 ppm, 7 days after infestation
Procedure: Example B4: Activity Against Frankliniella occidentalis (Western Flower Thrips). Feeding/Contact Activity
Sunflower leaf discs were placed on agar in 24-well microtiter plates and sprayed with aqueous test solutions prepared from […] stock solutions. After drying the leaf discs were infested with a Frankliniella population of mixed ages. The samples were assessed for mortality 7 days after infestation.

Myzus persicae [3] = test: Activity against Myzus persicae (green peach aphid), feeding/contact activity; conditions: 144 h, application rate 200 ppm, 6 days after infestation
Procedure: Example B5: Activity Against Myzus persicae (Green Peach Aphid). Feeding/Contact Activity
Sunflower leaf discs were placed onto agar in a 24-well microtiter plate and sprayed with aqueous test solutions prepared from 10′000 ppm DMSO stock solutions. After drying, the leaf discs were infested with an aphid population of mixed ages. The samples were assessed for mortality 6 days after infestation.

Myzus persicae [4] = test: Activity against Myzus persicae (green peach aphid), systemic activity; conditions: 144 h, test rate 24 ppm, 6 days after placing seedlings into test solutions
Procedure: Example B9: Activity Against Myzus persicae (Green Peach Aphid). Systemic Activity
Roots of pea seedlings infested with an aphid population of mixed ages were placed directly into aqueous test solutions prepared from 10′000 DMSO stock solutions. The samples were assessed for mortality 6 days after placing seedlings into test solutions.

C[C@H](NC(=O)c1cc(Cl)cc(C(F)(F)F)c1)c1ncnn1C1=NN(C)C(=O)CC1 [P19, 3-chloro-N-[(1S)-1-[2-(1-methyl-6-oxo-4,5-dihydropyridazin-3-yl)-1,2,4-triazol-3-yl]ethyl]-5-(trifluoromethyl)benzamide]
≥ 80%: percent control (mortality, anti-feedant effect or growth inhibition) at 200 ppm (Chilo suppressalis) | percent control (mortality, anti-feedant effect or growth inhibition) at 200 ppm (Spodoptera littoralis) | mortality at 12 ppm (Myzus persicae [1]) | percent control (mortality or growth inhibition) at 200 ppm (Plutella xylostella) | percent effect (mortality or growth inhibition) at 200 ppm (Euschistus heros) | percent control (mortality or growth inhibition) at 200 ppm (Diabrotica balteata) | mortality at 200 ppm (Tetranychus urticae) | mortality at 200 ppm [2]

C[C@H](NC(=O)c1cc(Cl)cc(S(C)(=O)=O)c1)c1ncnn1-c1ccc(=O)n(C)n1 [P9, 3-chloro-N-[(1S)-1-[2-(1-methyl-6-oxo-pyridazin-3-yl)-1,2,4-triazol-3-yl]ethyl]-5-methylsulfonyl-benzamide]
≥ 80%: mortality at 12 ppm (Myzus persicae [1]) | percent effect (mortality or growth inhibition) at 200 ppm (Euschistus heros) | mortality at 200 ppm (Myzus persicae [3]) | mortality at 200 ppm [2]

CC(c1nccnc1-c1ccc(=O)n(C)n1)N(C)C(=O)c1cc(C(F)(F)F)cc(C(F)(F)F)c1 (stereo not shown) [P6, N-methyl-N-[1-[3-(1-methyl-6-oxo-pyridazin-3-yl)pyrazin-2-yl]ethyl]-3,5-bis(trifluoromethyl)benzamide]
≥ 80%: percent control (mortality, anti-feedant effect or growth inhibition) at 200 ppm (Chilo suppressalis) | mortality at 24 ppm (Myzus persicae [4]) | percent control (mortality, anti-feedant effect or growth inhibition) at 200 ppm (Spodoptera littoralis) | mortality at 12 ppm (Myzus persicae [1]) | percent control (mortality or growth inhibition) at 200 ppm (Plutella xylostella) | mortality at 200 ppm (Myzus persicae [3]) | percent control (mortality or growth inhibition) at 200 ppm (Diabrotica balteata)

C[C@@H](c1ncnn1-c1ccc(=O)n(C)n1)N(C)C(=O)c1cc(C(F)(F)F)cc(C(F)(F)F)c1 [P5, N-methyl-N-[(1S)-1-[2-(1-methyl-6-oxo-pyridazin-3-yl)-1,2,4-triazol-3-yl]ethyl]-3,5-bis(trifluoromethyl)benzamide]
≥ 80%: percent control (mortality, anti-feedant effect or growth inhibition) at 200 ppm (Chilo suppressalis) | mortality at 24 ppm (Myzus persicae [4]) | percent control (mortality, anti-feedant effect or growth inhibition) at 200 ppm (Spodoptera littoralis) | mortality at 12 ppm (Myzus persicae [1]) | percent control (mortality or growth inhibition) at 200 ppm (Plutella xylostella) | percent effect (mortality or growth inhibition) at 200 ppm (Euschistus heros) | mortality at 200 ppm (Myzus persicae [3]) | percent control (mortality or growth inhibition) at 200 ppm (Diabrotica balteata)

C[C@@H](c1ncnn1-c1ccc(=O)n(C)n1)N(C)C(=O)c1cc(Cl)cc(S(=O)(=O)C(F)(F)F)c1 [P18, 3-chloro-N-methyl-N-[(1S)-1-[2-(1-methyl-6-oxo-pyridazin-3-yl)-1,2,4-triazol-3-yl]ethyl]-5-(trifluoromethylsulfonyl) benzamide]
≥ 80%: percent control (mortality, anti-feedant effect or growth inhibition) at 200 ppm (Chilo suppressalis) | mortality at 24 ppm (Myzus persicae [4]) | percent control (mortality, anti-feedant effect or growth inhibition) at 200 ppm (Spodoptera littoralis) | mortality at 12 ppm (Myzus persicae [1]) | percent control (mortality or growth inhibition) at 200 ppm (Plutella xylostella) | percent effect (mortality or growth inhibition) at 200 ppm (Euschistus heros) | mortality at 200 ppm (Myzus persicae [3]) | percent control (mortality or growth inhibition) at 200 ppm (Diabrotica balteata)

C[C@H](NC(=O)c1cc(C(F)(F)F)cc(C(F)(F)F)c1)c1ncnn1C1=NN(C)C(=O)CC1 [P2, N-[(1S)-1-[2-(1-methyl-6-oxo-4,5-dihydropyridazin-3-yl)-1,2,4-triazol-3-yl]ethyl]-3,5-bis(trifluoromethyl)benzamide]
≥ 80%: percent control (mortality, anti-feedant effect or growth inhibition) at 200 ppm (Chilo suppressalis) | percent control (mortality, anti-feedant effect or growth inhibition) at 200 ppm (Spodoptera littoralis) | percent control (mortality or growth inhibition) at 200 ppm (Plutella xylostella) | percent effect (mortality or growth inhibition) at 200 ppm (Euschistus heros) | mortality at 200 ppm (Myzus persicae [3]) | percent control (mortality or growth inhibition) at 200 ppm (Diabrotica balteata) | mortality at 200 ppm [2]

CCn1nc(-n2ncnc2[C@H](C)NC(=O)c2cc(Cl)cc(C(F)(F)F)c2)ccc1=O [P16, 3-chloro-N-[(1S)-1-[2-(1-ethyl-6-oxo-pyridazin-3-yl)-1,2,4-triazol-3-yl]ethy]-5-(trifluoromethyl)benzamide]
≥ 80%: percent control (mortality, anti-feedant effect or growth inhibition) at 200 ppm (Chilo suppressalis) | percent control (mortality, anti-feedant effect or growth inhibition) at 200 ppm (Spodoptera littoralis) | mortality at 12 ppm (Myzus persicae [1]) | percent control (mortality or growth inhibition) at 200 ppm (Plutella xylostella) | percent effect (mortality or growth inhibition) at 200 ppm (Euschistus heros) | mortality at 200 ppm (Myzus persicae [3]) | percent control (mortality or growth inhibition) at 200 ppm (Diabrotica balteata)

C[C@H](NC(=O)c1cc(Br)cc(OC(F)(F)F)c1)c1ncnn1-c1ccc(=O)n(C)n1 [P40, 3-bromo-N-[(1S)-1-[2-(1-methyl-6-oxo-pyridazin-3-yl)-1,2,4-triazol-3-yl]ethyl]-5-(trifluoromethoxy)benzamide]
≥ 80%: percent control (mortality, anti-feedant effect or growth inhibition) at 200 ppm (Chilo suppressalis) | percent control (mortality, anti-feedant effect or growth inhibition) at 200 ppm (Spodoptera littoralis) | mortality at 12 ppm (Myzus persicae [1]) | percent control (mortality or growth inhibition) at 200 ppm (Plutella xylostella) | percent effect (mortality or growth inhibition) at 200 ppm (Euschistus heros) | mortality at 200 ppm (Myzus persicae [3]) | percent control (mortality or growth inhibition) at 200 ppm (Diabrotica balteata)

CC(NC(=O)c1cc(C(F)(F)F)nc(C2(C#N)CC2)c1)c1nccnc1-c1ccc(=O)n(C)n1 (stereo not shown) [P32, 2-(1-cyanocyclopropyl)-N-[1-[3-(1-methyl-6-oxo-pyridazin-3-yl)pyrazin-2-yl]ethyl]-6-(trifluoromethyl)pyridine-4-carboxamide]
≥ 80%: percent control (mortality, anti-feedant effect or growth inhibition) at 200 ppm (Chilo suppressalis) | percent control (mortality, anti-feedant effect or growth inhibition) at 200 ppm (Spodoptera littoralis) | mortality at 12 ppm (Myzus persicae [1]) | percent control (mortality or growth inhibition) at 200 ppm (Plutella xylostella) | percent effect (mortality or growth inhibition) at 200 ppm (Euschistus heros) | mortality at 200 ppm (Myzus persicae [3]) | percent control (mortality or growth inhibition) at 200 ppm (Diabrotica balteata)

C[C@H](NC(=O)c1cc(Cl)cc(S(=O)(=O)C(F)(F)F)c1)c1ncnn1-c1ccc(=O)n(C)n1 [P20, 3-chloro-N-[(1S)-1-[2-(1-methyl-6-oxo-pyridazin-3-yl)-1,2,4-triazol-3-yl]ethyl]-5-(trifluoromethylsulfonyl) benzamide]
≥ 80%: percent control (mortality, anti-feedant effect or growth inhibition) at 200 ppm (Chilo suppressalis) | percent control (mortality, anti-feedant effect or growth inhibition) at 200 ppm (Spodoptera littoralis) | mortality at 12 ppm (Myzus persicae [1]) | percent control (mortality or growth inhibition) at 200 ppm (Plutella xylostella) | percent effect (mortality or growth inhibition) at 200 ppm (Euschistus heros) | mortality at 200 ppm (Myzus persicae [3]) | percent control (mortality or growth inhibition) at 200 ppm (Diabrotica balteata)
